EP0316690A2, “Agent for the treatment of ischemic heart diseases” (Dr. Karl Thomae GmbH, priority 1987, dated 1989)

What was measured:
[1] = system: glattmuskuläre coronare Muscarinrezeptoren; assay: Isolated perfused Langendorff heart: antagonism of the carbachol effect on coronary flow (CF); design: species or system Wistar Ratten; settings: for Coronarselektivität (Affinität für coronare vs. frequenzbeeinflussende M-Rezeptoren): comparison of CF and HR effects in the isolated rat heart; for pA₂-Werte Coronarflußeffekt CF: isolated rat heart, agonist Carbachol bolus 10⁻⁶ bis 10⁻²M, antagonist in perfusate, constant pressure 70 mm Hg
Experimental: (§1) Meßparameter sind Herzfrequenz und Coronarfluß.
(§2) Männliche Wistar Ratten mit einem Körpergewicht zwischen 300 und 350 g wurden mit Pentobarbital (70 mg/kg i.p.) anaesthe siert. […] Die Herzen wurden über die Aorta mit Krebs-Henseleit-Puffer (KHB) retograd bei einem konstanten Druck von 70 mm Hg perfundiert. Die Zusammensetzung des KHB betrug in mM: Kochsalz 114, Kaliumchlorid 4,7, Natriumbicarbonat 23,6, Kaliumdihydrogenphosphat 1,2, Magnesiumsulfat 1,1, Calziumchlorid 2,5. 11 mM Glucose wurden als Substrat beigefügt. Die Herzfrequenz (HR) wurde durch einen Tachographen (IFD, Mülheim) gemessen, der Coronarfluß (CF) wurde mittels eines elektromagnetischen Flowmeters (IFD, Mülheim) in Verbindung mit einer Sonde in dem zuführenden Teil der Aorta bestimmt.
(§3) Nach einer 15-minütigen Stabilisierungsphase in allen Experimenten wurde die erste Dosis-Wirkungs-Kurve erstellt. Dies geschah durch die Gabe von dem Fluß angepaßten Bolus-Injektionen (0,01 ml/10 ml CF) mit ansteigenden Dosierungen von Carbachol (10⁻⁶ bis 10⁻²M). Danach wurde die niedrigste Dosis des Antagonisten dem Perfusat beigegeben und die Dosis-Wirkungs-Kurve erneut aufgenommen. Darauffolgend gab man eine höhere Dosis des Antagonisten zu und es wurde der Einfluß von Carbachol auf den Coronarfluß (CF) und die Herzfrequenz (HF) erneut durch die Aufnahme von Dosis-Wirkungs-Kurven quantifiziert.

[2] = molecular target: T1, frequenzbeeinflussende M-Rezeptoren (Rattus norvegicus, UniProt P10980); assay: Isolated perfused Langendorff heart: antagonism of the negative chronotropic carbachol effect on heart rate (HR/HF); design: species or system Wistar Ratten; settings: isolated spontaneously beating rat heart, agonist Carbachol bolus 10⁻⁶ bis 10⁻²M, antagonist in perfusate; read-out: pA₂-Werte Herzfrequenz-Effekt HR (converted)
T1 construct: danach das Herz entnommen; from tissue; host or cells: isolated perfused Langendorff heart of male Wistar rats
T1 sequence (P10980 1-466): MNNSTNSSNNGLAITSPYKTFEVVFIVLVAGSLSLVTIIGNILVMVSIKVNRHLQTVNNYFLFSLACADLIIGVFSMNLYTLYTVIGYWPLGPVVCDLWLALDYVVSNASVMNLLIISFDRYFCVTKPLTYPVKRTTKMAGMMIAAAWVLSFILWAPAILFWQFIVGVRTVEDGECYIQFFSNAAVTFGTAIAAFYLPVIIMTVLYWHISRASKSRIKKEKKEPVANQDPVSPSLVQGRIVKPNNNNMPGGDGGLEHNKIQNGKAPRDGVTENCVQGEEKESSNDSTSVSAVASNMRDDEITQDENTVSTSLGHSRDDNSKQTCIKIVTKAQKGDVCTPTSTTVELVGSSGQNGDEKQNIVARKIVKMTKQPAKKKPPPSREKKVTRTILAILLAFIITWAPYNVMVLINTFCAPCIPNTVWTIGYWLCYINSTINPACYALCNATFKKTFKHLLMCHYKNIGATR
Experimental: as §1, §2, §3

| SMILES | Kb ([1]; read-out: pA₂-Werte Coronarflußeffekt CF (converted)) [µM] | Coronarselektivität (Affinität für coronare vs. frequenzbeeinflussende M-Rezeptoren) [1] | pA₂-Werte Coronarflußeffekt CF [1] | Kb [2] [µM] |
| --- | --- | --- | --- | --- |
| CN1C2CCC1CC(OC(=O)C(CO)c1ccccc1)C2 (racemic) [Atropin, reference compound] | 0.000631 |  |  |  |
| CN1CCC(CC(=O)N2c3ccccc3C(=O)Nc3cccc(Cl)c32)CC1 (single isomer, unassigned) [Substanz II, (+)-6-Chlor-5,10-dihydro-5-[(1-methyl-4-piperidinyl)acetyl]-11H-dibenzo[b,e][1,4]diazepin-11-on] |  | höhere Affinität für coronare als für frequenzbeeinflussende M-Rezeptoren | 8,2 ± 0,1 | 0.0316 |
| CN1CCC(CC(=O)N2c3ccccc3C(=O)Nc3cccc(Cl)c32)CC1 (racemic) [Substanz I, 6-Chlor-5,10-dihydro-5-[(1-methyl-4-piperidinyl)acetyl]-11H-dibenzo[b,e][1,4]diazepin-11-on] |  | höhere Affinität für coronare als für frequenzbeeinflussende M-Rezeptoren | 7,9 ± 0,2 | 0.0501 |
